# Source: publication PMC11127902, “Rescuing tri-heteromeric NMDA receptor function: the potential of pregnenolone-sulfate in loss-of-function GRIN2B variants” (Cellular and Molecular Life Sciences: CMLS, 2024)
# Legend:
# [1] = biological target: T1, Purely di-heteromeric GluN2B-wt (GluN1-1a-wt + GluN2B-wt-C1/C2) (Rattus norvegicus, UniProt P35439+Q00959+Q00960, A876H/F846L/G856D/H848F/K857R/M851T/M860L/Q845K/V861L); assay: TEVC in Xenopus oocytes; assay type: cell-based; conditions: 5 mM glutamate
# T1 construct: expressed in transfected cells; host or cells: Xenopus laevis oocytes, mRNA injection
# T1 sequence (Q00960+Q00959 fused with the stated changes, other chains not shown): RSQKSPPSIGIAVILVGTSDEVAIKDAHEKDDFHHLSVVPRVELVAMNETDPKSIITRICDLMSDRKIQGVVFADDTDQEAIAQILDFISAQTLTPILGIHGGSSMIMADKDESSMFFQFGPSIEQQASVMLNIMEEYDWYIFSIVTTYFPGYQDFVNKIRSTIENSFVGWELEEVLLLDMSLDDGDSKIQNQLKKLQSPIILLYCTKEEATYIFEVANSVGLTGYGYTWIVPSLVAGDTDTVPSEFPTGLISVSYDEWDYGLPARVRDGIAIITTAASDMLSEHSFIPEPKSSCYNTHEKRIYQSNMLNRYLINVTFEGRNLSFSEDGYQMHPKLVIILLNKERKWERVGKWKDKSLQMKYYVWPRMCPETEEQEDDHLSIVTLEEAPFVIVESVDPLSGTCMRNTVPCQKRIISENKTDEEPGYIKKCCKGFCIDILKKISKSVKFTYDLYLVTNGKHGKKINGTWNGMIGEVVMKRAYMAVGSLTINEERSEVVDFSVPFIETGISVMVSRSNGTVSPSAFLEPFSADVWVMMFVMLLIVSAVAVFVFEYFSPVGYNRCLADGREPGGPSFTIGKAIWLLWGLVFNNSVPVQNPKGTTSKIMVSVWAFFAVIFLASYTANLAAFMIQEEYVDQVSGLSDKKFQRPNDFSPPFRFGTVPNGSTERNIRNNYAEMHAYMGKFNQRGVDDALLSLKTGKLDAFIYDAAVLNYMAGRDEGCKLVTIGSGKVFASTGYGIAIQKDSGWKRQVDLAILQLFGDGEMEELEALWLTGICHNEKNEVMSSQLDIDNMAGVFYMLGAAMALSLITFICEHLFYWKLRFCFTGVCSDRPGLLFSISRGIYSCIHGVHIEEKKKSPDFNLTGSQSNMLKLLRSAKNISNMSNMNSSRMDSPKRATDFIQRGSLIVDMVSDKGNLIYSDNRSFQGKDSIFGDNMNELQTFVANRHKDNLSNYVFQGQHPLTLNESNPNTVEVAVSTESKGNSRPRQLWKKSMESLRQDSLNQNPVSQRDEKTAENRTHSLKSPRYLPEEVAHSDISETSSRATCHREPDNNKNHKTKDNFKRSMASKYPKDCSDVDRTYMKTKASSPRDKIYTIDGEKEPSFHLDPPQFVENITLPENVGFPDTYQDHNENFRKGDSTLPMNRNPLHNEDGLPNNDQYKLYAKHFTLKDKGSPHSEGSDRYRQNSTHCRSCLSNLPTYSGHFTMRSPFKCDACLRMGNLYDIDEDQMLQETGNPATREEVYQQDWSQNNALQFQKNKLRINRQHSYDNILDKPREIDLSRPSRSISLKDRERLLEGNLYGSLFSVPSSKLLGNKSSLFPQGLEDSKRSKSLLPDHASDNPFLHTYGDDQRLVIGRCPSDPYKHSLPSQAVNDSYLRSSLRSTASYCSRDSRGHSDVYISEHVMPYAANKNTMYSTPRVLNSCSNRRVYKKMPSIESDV
# From the text: (§1) Aliquots were thawed before each experiment.
# [2] = biological target: T2, Mixed di-heteromeric GluN2B-wt/GluN2B-G689S (Rattus norvegicus, UniProt P35439+Q00960, G689S); assay: TEVC in Xenopus oocytes; assay type: cell-based; conditions: 5 mM glutamate
# T2 construct: expressed in transfected cells; host or cells: Xenopus laevis oocytes, mRNA injection
# From the text: as §1
# [3] = biological target: Tri-heteromeric GluN2A-wt/GluN2B-wt (Rattus norvegicus, UniProt P35439+Q00959+Q00960, A876H/F846L/G856D/H848F/K857R/M851T/M860L/Q845K/V861L); assay: TEVC in Xenopus oocytes; conditions: 5 mM glutamate
# Protocol: (§2) Two electrode voltage clamp (TEVC) recordings were carried out 24–72 h after mRNA injections, as previously described [17, 37]. We use a commercial amplifier (Warner Instruments, USA) and Digitizer (Digidata-1550B; Molecular Devices, USA), controlled by the pClamp10 software (Molecular Devices, USA). Electrode were made by pulling glass capillaries (Narishige, Japan) filled with 3 M KCl, into which we inserted chlorinated silver wires. […] For hERG channel recordings, oocytes were clamped at (− 60) mV for 1 s, followed by a voltage jump to 20 mV for 4 s, and an additional voltage jump to (− 50) mV for 6 s and return to baseline voltage (see Supplementary. 6f), as previously described [53].
# (§3) When assessing potentiation by PS, all other solutions also included equal amounts of the DMSO carrier (0.2%).
# Electrophysiology data were analyzed by Clampfit 11.2 (Molecular Devices, USA), plotted using GraphPad 8 or SigmaPlot 11(Systat software, Inc.). […] In all TEVC recordings in oocytes, the responses were normalized to current amplitude obtained from that individual cell. […] All data are shown as mean ± SEM. In all experiments N indicates the number of independent experiments, whereas n indicates the number of cells recorded. In each experiment, data underwent normality test prior to statistical assessment. Normally distributed data were assessed for significance by using paired t-test or one-way ANOVA for multiple group comparison and post hoc Tukey test or Dunnett's test. Similarly, in the case of non-normally distributed data significance was assessed by Mann Whitney test or Kruskal–Wallis ANOVA on ranks test followed by Dunn’s multiple comparison post hoc; n.s., non-significant; *p < 0.05; **p < 0.01; ***p < 0.001. […] Leak expression was evaluated by normalizing the maximal current (Imax) of each ER-retained NMDAR composition to Imax of control group (which was recorded in all experiments). […]
# [4] = biological target: T3, GluN2A-wt-containing tri-heteromeric receptors (GluN2B wt or variants) (Rattus norvegicus, UniProt P35439+Q00959+Q00960, A876H/F846L/G856D/H848F/K857R/M851T/M860L/Q845K/V861L); assay: TEVC in Xenopus oocytes, all tri-heteromers; assay type: cell-based
# T3 construct: expressed in transfected cells; host or cells: Xenopus laevis oocytes, mRNA injection
# T3 sequence (Q00959 23-1464, other chains not shown): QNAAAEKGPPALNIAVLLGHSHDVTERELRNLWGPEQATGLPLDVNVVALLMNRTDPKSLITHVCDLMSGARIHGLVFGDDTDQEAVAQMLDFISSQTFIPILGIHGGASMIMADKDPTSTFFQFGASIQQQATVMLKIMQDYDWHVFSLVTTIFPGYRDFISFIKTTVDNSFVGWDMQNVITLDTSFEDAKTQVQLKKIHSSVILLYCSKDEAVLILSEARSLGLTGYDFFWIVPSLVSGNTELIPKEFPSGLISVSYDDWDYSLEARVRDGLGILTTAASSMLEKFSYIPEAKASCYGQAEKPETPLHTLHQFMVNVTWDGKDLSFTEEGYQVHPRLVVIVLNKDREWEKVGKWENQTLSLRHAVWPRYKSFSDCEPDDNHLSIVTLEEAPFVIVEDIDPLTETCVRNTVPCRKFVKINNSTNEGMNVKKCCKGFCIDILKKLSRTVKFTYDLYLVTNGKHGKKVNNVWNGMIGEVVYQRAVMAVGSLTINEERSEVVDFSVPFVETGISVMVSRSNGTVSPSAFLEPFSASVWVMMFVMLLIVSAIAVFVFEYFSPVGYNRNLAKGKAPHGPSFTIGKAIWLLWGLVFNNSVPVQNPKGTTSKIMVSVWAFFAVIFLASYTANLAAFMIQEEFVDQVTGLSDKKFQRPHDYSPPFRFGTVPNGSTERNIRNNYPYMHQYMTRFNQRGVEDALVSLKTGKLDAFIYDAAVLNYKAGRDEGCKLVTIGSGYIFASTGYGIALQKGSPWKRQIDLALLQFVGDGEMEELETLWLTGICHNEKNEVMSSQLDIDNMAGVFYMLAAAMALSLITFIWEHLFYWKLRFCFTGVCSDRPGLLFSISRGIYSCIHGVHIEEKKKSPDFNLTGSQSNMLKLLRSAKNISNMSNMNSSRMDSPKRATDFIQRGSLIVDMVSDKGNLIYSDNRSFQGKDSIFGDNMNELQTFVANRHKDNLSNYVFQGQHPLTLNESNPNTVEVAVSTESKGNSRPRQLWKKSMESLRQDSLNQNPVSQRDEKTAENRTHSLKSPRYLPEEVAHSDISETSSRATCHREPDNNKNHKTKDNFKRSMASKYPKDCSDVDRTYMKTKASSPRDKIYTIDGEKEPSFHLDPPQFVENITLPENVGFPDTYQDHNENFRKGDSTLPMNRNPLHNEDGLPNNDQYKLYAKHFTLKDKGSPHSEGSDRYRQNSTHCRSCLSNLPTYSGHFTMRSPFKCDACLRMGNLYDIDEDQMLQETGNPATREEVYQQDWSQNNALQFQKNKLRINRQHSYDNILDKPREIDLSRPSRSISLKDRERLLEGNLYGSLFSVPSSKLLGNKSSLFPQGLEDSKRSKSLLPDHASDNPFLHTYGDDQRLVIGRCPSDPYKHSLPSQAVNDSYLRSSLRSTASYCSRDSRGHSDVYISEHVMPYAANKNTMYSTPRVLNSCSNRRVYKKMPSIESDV
# T3 sequence (Q00960+Q00959 fused with the stated changes, other chains not shown): as the sequence (Q00960+Q00959 fused with the stated changes, other chains not shown) above
# From the text: as §1
# [5] = biological target: T4, Tri-heteromeric GluN2A-wt/GluN2B-G689C (Rattus norvegicus, UniProt P35439+Q00959+Q00960, A876H/F846L/G689C/G856D/H848F/K857R/M851T/M860L/Q845K/V861L); assay type: cell-based; conditions: 5 mM glutamate
# T4 construct: expressed in transfected cells; host or cells: Xenopus laevis oocytes, mRNA injection
# From the text: as §1
# [6] = biological target: T5, Tri-heteromeric GluN2A-wt/GluN2B-G689S (Rattus norvegicus, UniProt P35439+Q00959+Q00960, A876H/F846L/G689S/G856D/H848F/K857R/M851T/M860L/Q845K/V861L); assay type: cell-based; conditions: 5 mM glutamate
# T5 construct: expressed in transfected cells; host or cells: Xenopus laevis oocytes, mRNA injection
# From the text: as §1
# [7] = tested on: non-tagged purely di-heteromeric GluN2B-G689S; conditions: purely variant di-heteromers, previous observations; cited from earlier work
# [8] = biological target: Mixed di-heteromeric GluN2B-wt/GluN2B-G689C (Rattus norvegicus, UniProt P35439+Q00960, G689C); assay: TEVC in Xenopus oocytes; conditions: 5 mM glutamate
# Protocol: as §2, §3
# Electrophysiology data were analyzed by Clampfit 11.2 (Molecular Devices, USA), plotted using GraphPad 8 or SigmaPlot 11(Systat software, Inc.). […] In all TEVC recordings in oocytes, the responses were normalized to current amplitude obtained from that individual cell. […] All data are shown as mean ± SEM. In all experiments N indicates the number of independent experiments, whereas n indicates the number of cells recorded. In each experiment, data underwent normality test prior to statistical assessment. Normally distributed data were assessed for significance by using paired t-test or one-way ANOVA for multiple group comparison and post hoc Tukey test or Dunnett's test. Similarly, in the case of non-normally distributed data significance was assessed by Mann Whitney test or Kruskal–Wallis ANOVA on ranks test followed by Dunn’s multiple comparison post hoc; n.s., non-significant; *p < 0.05; **p < 0.01; ***p < 0.001. […] Leak expression was evaluated by normalizing the maximal current (Imax) of each ER-retained NMDAR composition to Imax of control group (which was recorded in all experiments). Estimation of activation time constant (τ) for potentiated currents by PS, was performed by fitting PS- potentiated currents with a standard single-exponential function, from which we extracted the time constant (τ).
# [9] = tested on: non-tagged purely di-heteromeric GluN2B-G689C; conditions: purely variant di-heteromers, previous observations; cited from earlier work
# [10] = biological target: T6, Purely di-heteromeric GluN2B-G689C (C1/C2) (Rattus norvegicus, UniProt P35439+Q00959+Q00960, A876H/F846L/G689C/G856D/H848F/K857R/M851T/M860L/Q845K/V861L); assay: TEVC in Xenopus oocytes; assay type: cell-based
# T6 construct: expressed in transfected cells; host or cells: Xenopus laevis oocytes, mRNA injection
# From the text: as §1
# [11] = biological target: T7, Purely di-heteromeric GluN2B-G689S (C1/C2) (Rattus norvegicus, UniProt P35439+Q00959+Q00960, A876H/F846L/G689S/G856D/H848F/K857R/M851T/M860L/Q845K/V861L); assay: TEVC in Xenopus oocytes; assay type: cell-based
# T7 construct: expressed in transfected cells; host or cells: Xenopus laevis oocytes, mRNA injection
# From the text: as §1
# [12] = tested on: GABAA receptor; parameters: method as in PMID 34339523; conditions: cited from earlier work
# [13] = tested on: GluN2C- and GluN2D-containing di-heteromers; conditions: cited from earlier work
# [14] = tested on: NMDAR-dependent currents in cultured hippocampal neurons (naive or overexpressing GluN2B-wt, GluN2B-G689C, GluN2B-G689S); assay: Whole cell patch clamp of primary cultured hippocampal neurons; assay type: cell-based, rat
# Protocol: Cultures of hippocampal primary neurons were established as previously stated. Briefly, extracted rat neonates (P0) hippocampi were dissociated and plated onto 12 mm poly-D-lysine (Sigma-Aldrich, Cat. #P6407)- treated glass coverslips. Cultures were then maintained in an enriched growth media and grown at 37 °C and 5% CO2. Following five days in-vitro (DIV), growth medium was supplemented with 4 μM cytosine-arabinoside (ARA-C) to suppress glia proliferation. At nine DIV, neurons were co-transfected using the calcium-phosphate method with 2 different plasmids: 0.3 μg DNA of eYFP and 2 μg GluN2B-wt or GluN2B-G689C or GluN2B-G689S. To avoid recordings from cells transfected only with the fluorescent reporter, the ratio between the different plasmids during co-transfection favored the plasmids encoding GluN2B-wt/G689C/G689S. Recordings were performed four to seven days past transfection.
# We patched YFP-positive neurons at 13–18 DIV. YFP was excited by X-Cite LED illuminator (Excelitas Technologies). Electrode were made by pulling glass capillaries to resistance of 5–10 MΩ. Electrodes were filled with an intracellular solution containing (in mM): 135 K-gluconate, 10 NaCl, 10 HEPES, 2 MgCl2, 2 Mg^2+-ATP, 1 EGTA, pH adjusted to 7.3 with KOH. Patch-clamp recordings were performed with Axon MultiClamp 700B amplifier and Axon Digidata 1440A acquisition system. In all experiments, recordings were performed using a 10 kHz sampling rate and low pass filter. Neurons were clamped at (-70) mV. […] Cells were recorded for ~ 3 min. For assessing the total NMDAR-dependent current (Imax), neurons were then perfused with extracellular solution (see above) supplemented with 100 μM of NMDA (Alomone labs, Cat #: N-170) for exclusive activation of NMDARs. Potentiation was assessed by perfusing cells with the extracellular solution along with 100 μM NMDA and 100 μM of PS (Cat. #P162) in 0.2% DMSO. […] Cells that didn’t reach steady-state after application of 100 μM NMDA were excluded from analysis. Extent of potentiation by PS was evaluated at steady-state.
# [15] = biological target: T8, Purely wt or mixed di-heteromeric receptors containing GluN2B-subunits (Rattus norvegicus, UniProt P35439+Q00959+Q00960, A876H/F846L/G856D/H848F/K857R/M851T/M860L/Q845K/V861L); assay: TEVC in Xenopus oocytes, wt and mixed di-heteromers; assay type: cell-based; conditions: 100 µM PS
# T8 construct: expressed in transfected cells; host or cells: Xenopus laevis oocytes, mRNA injection
# From the text: as §1
# [16] = tested on: GluN2B di-heteromers; parameters: method as in PMID 29682629; conditions: 2.5 μM ifenprodil; cited from earlier work
# [17] = tested on: tri-heteromers (GluN2A/GluN2B); parameters: method as in PMID 29682629; conditions: 2.5 μM ifenprodil; cited from earlier work
# [18] = tested on: GluN2A-containing di-heteromers; parameters: method as in PMID 29682629; conditions: 2.5 μM ifenprodil; cited from earlier work
# [19] = biological target: di- or tri-heteromeric NMDA receptors (Rattus norvegicus, UniProt P35439+Q00959+Q00960, A876H/F846L/G856D/H848F/K857R/M851T/M860L/Q845K/V861L); conditions: 0.1-10 μM olanzapine, 5 mM glutamate, 100 μM glycine
# From the text: as §1
# [20] = tested on: GABAA receptors; parameters: method as in PMID 24174662; conditions: cited from earlier work
# [21] = tested on: all NMDAR-subtypes; parameters: method as in PMID 24174662; conditions: cited from earlier work
# [22] = tested on: GluN2B-G689C and GluN2B-G689S variant receptors; parameters: method as in PMID 34212862, PMID 37369021; conditions: cited from earlier work
# [23] = tested on: synaptic NMDARs in cultured hippocampal neurons; assay: Fraction of extrasynaptic NMDARs with MK-801, hippocampal neurons; assay type: cell-based, rat; conditions: 1 μM MK-801 10 min, 100 μM NMDA
# Protocol: Evaluation of the fraction of extrasynaptic NMDARs was done as previously described. Briefly, neurons were initially perfused with extracellular solution (see above) supplemented with 100 μM of NMDA to assess the total (synaptic and extrasynaptic) NMDAR-dependent current. Subsequently, the 100 μM of NMDA was thoroughly washed for 2 min (to refrain from activation of NMDAR by remaining NMDA), then neurons were perfused with the extracellular solution supplemented with 1 μM MK-801 for 10 min to exclusively block synaptic receptors (which are activated by action-potential independent miniature neurotransmission). Extrasynaptic NMDAR-dependent currents were then measured by washing the cells from excess MK-801 for 2 min followed by a second application of 100 μM NMDA. Evaluation of the fraction of the extrasynaptic NMDARs was done by dividing the maximal current remaining after MK-801 application by the current obtained before the MK-801 treatment.
compound,measurement,setting,value
"NCCCNCCCCNCCCN [Spermine, spermine]",Spermine Potentiation (Fold change),"[1]; 200 μM spermine, pH 7.3","1.97 ± 0.56 (N = 3, n = 25) Fold change"
same,Spermine Potentiation (Fold change),"[2]; 200 μM spermine, pH 7.3","1.61 ± 0.03 (N = 2, n = 24) Fold change"
same,Spermine Potentiation (Fold change),"[3]; 200 μM spermine, pH 7.3","0.73 ± 0.02 (N = 2, n = 12) Fold change"
same,response to spermine,"[4]; 200 μM spermine, pH 7.3, 5 mM glutamate",non-responsive
same,inhibition by spermine (fold),"[4]; all tri-heteromers examined, 200 μM spermine",0.75 fold
same,Spermine Potentiation (Fold change),"[5]; 200 μM spermine, pH 7.3","0.70 ± 0.03 n.s (N = 1, n = 10) Fold change"
same,Spermine Potentiation (Fold change),"[6]; 200 μM spermine, pH 7.3","0.75 ± 0.02 n.s (N = 2, n = 19) Fold change"
same,response to spermine,[7],inhibited
same,Spermine Potentiation (Fold change),"[8]; 200 μM spermine, pH 7.3","1.78 ± 0.51 (N = 2, n = 20) Fold change"
same,response to spermine,[9],poorly responsive
pregnenolone-sulfate [PS],potentiation by PS (fold increase),[10]; 100 µM PS,~ fourfold
same,PS Potentiation (Fold change),"[10]; 100 μM PS, 5 mM glutamate","3.96 ± 0.14 (N = 3, n = 18) Fold change"
same,potentiation by PS (fold increase),[11]; 100 µM PS,~ fivefold
same,PS Potentiation (Fold change),"[11]; 100 μM PS, 5 mM glutamate","4.68 ± 0.19 (N = 3, n = 23) Fold change"
same,PS Potentiation (Fold change),[1]; 100 μM PS,"3.03 ± 0.13 (N = 3, n = 16) Fold change"
same,PS Potentiation (Fold change),[2]; 100 μM PS,"2.99 ± 0.10 n.s (N = 3, n = 20) Fold change"
same,PS Potentiation (Fold change),[3]; 100 μM PS,"1.87 ± 0.04 (N = 4, n = 30) Fold change"
same,potentiation by PS (fold increase),"[4]; 100 µM PS, all tri-heteromeric types, wt or GluN2B variants",~ twofold
same,PS Potentiation (Fold change),[5]; 100 μM PS,"2.12 ± 0.10 n.s (N = 3, n = 13) Fold change"
same,PS Potentiation (Fold change),[6]; 100 μM PS,"2.02 ± 0.06 n.s (N = 2, n = 13) Fold change"
same,mode of action of PS,[12],negative allosteric modulator (NAM)
same,mode of action of PS,[13],negative allosteric modulator (NAM)
same,effect of PS on Imax,"[14]; 100 μM PS with 100 μM NMDA, 50 μM glycine, all groups",increased Imax of neurons from all groups
same,effect of PS on NMDAR-current without added NMDA,"[14]; 100 μM PS, no NMDA added",enhanced the overall NMDAR-current
same,extent of potentiation (fold) by PS,"[14]; 100 μM PS, neurons overexpressing the variants vs naive or GluN2B-wt",significantly larger
same,PS Potentiation (Fold change),[8]; 100 μM PS,"2.78 ± 0.15 n.s. (N = 3, n = 13) Fold change"
same,potentiation by PS (fold increase),[15],~ threefold
CC(C(O)c1ccc(O)cc1)N1CCC(Cc2ccccc2)CC1 (stereo not drawn) [ifenprodil],expected inhibition by ifenprodil,[16],~ 85%
same,expected inhibition by ifenprodil,[17],< 40%
same,expected inhibition by ifenprodil,[18],< 10%
Cc1cc2c(s1)Nc1ccccc1N=C2N1CCN(C)CC1 [olanzapine],direct effect of olanzapine on NMDAR currents,[19],no evidence for any direct effect
"CC(C)[C@@H](O)CC[C@@H](C)[C@H]1CC[C@H]2[C@@H]3CC=C4C[C@@H](O)CC[C@]4(C)[C@H]3CC[C@]12C [24(S)-HC, 24(S)-hydroxycholesterol]",effect of 24(S)-HC,[20],no known effect
same,potentiation by 24(S)-HC,[21],can potentiate all NMDAR-subtypes alike
C[C@]12N[C@H](Cc3ccccc31)c1ccccc12 [MK-801],block by MK-801,[22],efficiently and potently blocks both variant receptors
same,extrasynaptic fraction (current remaining after MK-801),[23]; neurons overexpressing GluN2B-wt,38%
same,fraction of remaining current after MK-801,[23]; neurons overexpressing the variants,~ 50%
